Drawing on PubChem BioAssay (NCI), this text covers TGI for 13 compounds.

Holding throughout (assay): inhibition of tumour cell growth, NCI panel, 48 h
Assay [1] has as its system LOX IMVI melanoma.
The subject of assay [2] is HOP-92 NSCLC.
Assay [3] relates to K-562 leukemia.
In assay [4] the test system is U251 CNS.
The subject of assay [5] is ACHN renal.
Assay [6] has as its system MDA-N.
In assay [7] the test system is T-47D breast.
Assay [8] relates to A498 renal.
The subject of assay [9] is HT29 colon.
Assay [10] concerns RPMI-8226 leukemia.
In assay [11] the test system is SNB-19 CNS.
Assay [12] has as its system KM12 colon.
The subject of assay [13] is A549 NSCLC.
The test system of assay [14] is NCI/ADR-RES ovarian.
Assay [15] has as its system EKVX NSCLC.
Assay [16] has as its system NCI-H460 lung.
Assay [17] deals with NCI-H522 lung.

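Cultured in 96-well plates, cells were exposed to test compound for 48 hours across five concentrations. TGI is the concentration that stops growth completely.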 Bounds are passed on as bounds.

Take `O=c1[nH]c2cccc([N+](=O)[O-])c2c(=O)n1-c1ccc(Cl)cc1`: the TGI in [1] came to 59.5 µM; in assay [2], 47.9 µM; in [3] it was 34.9 µM; in assay [4], 59.7 µM; in [5] it was 25.1 µM; in assay [6] it was 26.6 µM. For the same compound, the TGI in [7] was 26.8 µM; in [8] it was 30.6 µM; in assay [9] it was 26.1 µM; in [10], 36.1 µM; in assay [11] it was 45 µM; in assay [12], 34.4 µM. For the same compound, the TGI was found to be 36.3 µM in [13], 43.6 µM in assay [14], 28 µM in assay [15] and 25.8 µM in assay [16].
Take `COC(=O)C(=O)C(C(=O)C(=O)Nc1ccccc1C(N)=O)c1nc2ccc(Cl)cc2[nH]c1=O` (stereo not given): the TGI in [1], in [2], in assay [3], in [4], in [5] and in [6] was over 100 µM in each case. The TGI in assay [7], in [8], in assay [9], in assay [10], in assay [11] and in assay [12] was over 100 µM each time. For the same compound, the TGI in assay [13], in assay [14] and in assay [16] was over 100 µM in each case.
As to `OCC1OC(NC(=S)NCCC(F)(F)C(F)(F)C(F)(F)C(F)(F)C(F)(F)C(F)(F)F)C(O)C(O)C1O` (stereo not given), the TGI in [1], in [2], in [3], in assay [4], in assay [5] and in assay [6] was over 100 µM each time. Moreover, the TGI in assay [7] was over 100 µM; in [8], 56.6 µM; in assay [9], over 100 µM; in assay [10] it was over 100 µM; in assay [11] it was over 100 µM; in assay [12], over 100 µM. Further, the TGI in assay [13], in assay [14] and in assay [16] was over 100 µM each time.
As for `CC1=CC[C@H](C[C@H](C#CCCCC2OCCO2)O[Si](C(C)C)(C(C)C)C(C)C)C(=O)CC1`, the TGI in assay [1], in assay [2], in assay [3], in assay [4], in assay [5] and in assay [6] was over 100 µM throughout. Further, the TGI in [7], in assay [8], in assay [9], in [10], in assay [11] and in [12] was over 100 µM each time. Further, the TGI in assay [13], in [14], in [15] and in assay [16] was over 100 µM throughout.
With `NC1C/C(=N\O)c2c(Cl)sc(Cl)c21` (stereo not given), the TGI in assay [1] is 15.9 µM; in [2], 42.9 µM; in assay [3], over 100 µM; in assay [5], 36.4 µM; in assay [6], 33.4 µM; in assay [7] it was 39.7 µM. For the same compound, the TGI is 59.8 µM in assay [8]; 54.6 µM in assay [9]; 65.3 µM in [10]; 94.3 µM in assay [11]; 25.5 µM in assay [12]; over 100 µM in assay [13]. In addition, the TGI stood at 67.3 µM in [14], 34 µM in assay [15] and 43.3 µM in assay [16].
As for `COc1cc(C2C3=C(COC3=O)OC(C)(C)Oc3cc4c(cc32)OCO4)cc(OC)c1O` (stereo not given), the TGI in assay [17] was 6.72 µM; in [1], over 100 µM; in assay [2] it was over 94.5 µM; in [3] it was over 20.3 µM; in assay [4], over 100 µM; in [5], over 100 µM. The TGI is 0.423 µM in assay [6]; over 100 µM in assay [7]; 68 µM in [8]; over 23.3 µM in assay [9]; over 100 µM in [10]; over 100 µM in assay [11]. Besides, the TGI in assay [12] is over 44.5 µM; in assay [13] it was over 76.8 µM; in assay [15], over 100 µM; in assay [16], over 100 µM.
`CCCCCCCC(CC(=O)NC(CO)C(=O)NC(CO)CC(C)C)OC(=O)CC(CCCCCCC)OC(=O)CC(CCCCCCC)OC1OC(C)C(O)C(OC2OC(C)C(O)C(OC(C)=O)C2O)C1O` (stereo not given): the TGI in [17] worked out at 28.4 µM; in assay [2], 22.8 µM; in assay [3], 31.4 µM; in assay [4], 17.2 µM; in assay [5], 31.4 µM; in assay [6], 19.5 µM. Besides, the TGI in [7] was 26.8 µM; in [8] it was 26.1 µM; in assay [9], 20.4 µM; in assay [11], 20.4 µM; in [12], 22.1 µM; in assay [13], 25 µM. Also, the TGI in assay [15] stood at 28.7 µM; in assay [16], 26.1 µM.
On to `CC[C@]12C=CCN3CC[C@@]4(c5cc(Br)c(OC)c([N+](=O)[O-])c5N(C)[C@H]4[C@@](O)(C(=O)OC)[C@@H]1OC(C)=O)[C@@H]32`, for which the TGI in [1], in [3], in assay [4], in [5], in assay [6] and in assay [7] was over 100 µM throughout. For the same compound, the TGI in assay [8], in assay [9], in assay [10], in assay [11], in assay [12] and in [13] was over 100 µM in each case. The figures for the TGI in assay [14], in assay [15] and in assay [16] were over 100 µM, 91.4 µM and over 100 µM, respectively.
As to `CC(C)CCCC(C)[C@H]1CC[C@H]2n3c(nnc3-c3ccccc3)CCC[C@]12C` (stereo not given in full), the TGI was 12.5 µM in assay [1]; 37 µM in [2]; 13.6 µM in assay [3]; 23.5 µM in assay [4]; 31 µM in assay [6]; 37.4 µM in [7]. Besides, the TGI in assay [8] was 31.8 µM; in assay [9], 60.5 µM; in assay [10] it was 21.1 µM; in [11] it was 28.2 µM; in assay [12] it was over 100 µM; in assay [13] it was 28 µM. The values for the TGI in assay [14] and in assay [16] were 24 µM and 24.1 µM, respectively.
On to `O=S(=O)(/N=S(/Nc1ccccc1)C(Cl)Cl)c1ccccc1` (stereo not given), for which the TGI in assay [1], in assay [2], in assay [3], in [4], in assay [5] and in assay [6] was over 100 µM throughout. Moreover, the TGI in [7], in [9], in assay [10], in [11], in [12] and in [13] was over 100 µM each time. Also, the TGI in assay [14], in assay [15] and in assay [16] was over 100 µM in each case.
Turning to `COc1ccc(CC2Cc3ccccc3CCN2)cc1OC` (stereo not given), the TGI in assay [1], in assay [2], in [3], in [4], in assay [6] and in assay [7] was over 50 µM each time. Moreover, the TGI in assay [8], in assay [9], in assay [10], in [11], in assay [12] and in [13] was over 50 µM throughout. The TGI in [14], in assay [15] and in assay [16] was over 50 µM throughout.
For the compound `Cc1cccc(N/C(=C(/C(Cl)=C(Cl)Cl)[N+](=O)[O-])n2nnc3ccccc32)c1`, the TGI is over 100 µM in assay [3]; 26.9 µM in assay [4]; 63.1 µM in assay [5]; 64.9 µM in assay [6]; 56 µM in [7]; 25 µM in [8]. In addition, the TGI is 33.3 µM in assay [9]; over 100 µM in [10]; 34.3 µM in assay [11]; 29.3 µM in assay [12]; 36 µM in assay [13]; 49.4 µM in [14]. The results for the TGI in [15] and in assay [16] were 39.6 µM and 45.1 µM, respectively.
On to `Cc1cn(C2OC(CO[Si](C)(C)C(C)(C)C)/C(=C\C#N)C2O[Si](C)(C)C(C)(C)C)c(=O)[nH]c1=O` (stereo not given), for which the TGI in [1], in assay [2], in [3], in assay [4], in [5] and in assay [6] was over 100 µM each time. Also, the TGI in assay [7], in assay [8], in assay [9], in assay [10], in assay [11] and in [12] was over 100 µM throughout. Also, the TGI in assay [13], in [14] and in assay [16] was over 100 µM each time.
